These molecules were tested on Caco-2/TC7 cells (assay: Flavonol metabolism and transport experiments on Caco-2/TC7 transwell monolayers, effect of MK571). Conditions: apical to basolateral ratio of efflux of the conjugate, 60 min, 12-well transwells.
Assay type: cell-based, human
Method: Cells were grown at 37 °C in a humidified incubator with 5% CO2 in Dulbecco Modified Eagle's Medium (DMEM) containing 1% non-essential amino acids, 1% L-glutamine, 100 IU/mL penicillin and 100 μg/mL streptomycin, 1 g/L glucose, and supplemented with 20% (v/v) heat inactivated fetal calf serum. Cells were passaged at 80% confluency, and seeded at 2–4 × 10^4 cells per cm^2 on 10 cm dishes (growing area 75 cm^2) or 12-well transwells (growing area of 1.1 cm^2). […] Toxicity of MK571 on Caco-2/TC7 cell monolayers was determined through comparison of pre- and post-loading TEER values of wells incubated with MK571.
Flavonol stocks (quercetin, kaempferol, galangin; 10 mM) were prepared in dimethylsulfoxide (DMSO) and stored at −20 °C. MK571 was dissolved in dimethyl sulfoxide (10 mM final concentration) and stored at −20 °C. Prior to the metabolism or transport experiments, cells were aspirated of media and washed three times with phosphate buffered saline (PBS). To foetal calf serum and phenol red-free DMEM was added ascorbic acid at a final concentration of 100 μM as well as MK571 at the desired concentration. For metabolism experiments, 10 mL of this media was added to the cells in 10 cm dishes. For transport experiments using transwells, 0.6 mL of this media was added to the apical compartment of the transwell and 1 mL was added to the basolateral compartment. Control wells received an equivalent dose of dimethyl sulfoxide as the treatment wells. Cells were incubated at 37 °C for 30 min, after which flavonols dissolved in dimethyl sulfoxide (kaempferol, galangin or quercetin) were added to the media of treatment wells at a final concentration of 40 or 100 μM, while control wells were treated with the dimethyl sulfoxide vehicle alone. Concentrations of quercetin were increased to 100 μM because instability of quercetin in media necessitated higher initial loading to maintain adequate cellular and media concentrations for uptake and metabolism of the flavonol. Control and treatment cells were incubated at 37 °C for the periods indicated in the results.
Following the required incubation period, media and cell fractions were harvested and analysed to identify and quantify flavonol metabolites using HPLC. Media was removed from the apical (0.5 mL) and basolateral (0.5 mL) compartments of transwells and added to 25 μL trifluoroacetic acid and 25 μL HPLC grade acetonitrile. Media from 10 cm dishes (1 mL) was removed and added to 50 μL trifluoroacetic acid and 25 μL HPLC grade acetonitrile. Cells were washed three times with cold (room temperature) phosphate buffered saline solution and scraped free of the dish surface. For transwells, 100 μL MilliQ water was added to the cells and the resulting cell suspension pipetted into 10 μL trifluoroacetic acid and 10 μL HPLC grade acetonitrile. For 10 cm dishes, the resulting cell suspension was pipetted into 25 μL trifluoroacetic acid and 25 μL HPLC grade acetonitrile. Samples were either analysed immediately or otherwise stored at −20 °C prior to HPLC analysis. Flavonols were stable during frozen storage and thawing (no significant losses up to 26 weeks).
Media samples were thawed where necessary and then mixed using a vortex mixer, centrifuged for 10 min at 14,000 × g using a micro centrifuge, and the supernatant removed and placed in an HPLC vial for analysis. Cell samples were vortex-mixed and then ultra-sonicated (sonic water bath) for 10 min, vortex mixed again and then centrifuged for 10 min at 14,000 × g using a micro-centrifuge, before removal of supernatant for HPLC analysis. Identification and quantification of individual flavonol metabolites was carried out using liquid chromatography–mass spectrometry and nuclear magnetic resonance analyses, as described previously. […]

Row | Ap:Bl ratio (50 μM MK571) | Ap:Bl ratio (No MK571) | Ap:Bl ratio (100 μM MK571) | Molecule
1 | 100% apical | 100% apical | – | O=C(O)[C@H]1O[C@@H](Oc2cc(-c3oc4cc(O)cc(O)c4c(=O)c3O)ccc2O)[C@H](O)[C@@H](O)[C@@H]1O [Q-3′-GlcA]
2 | 0.25 (±0.035) | 0.23 (±0.034) | – | O=C(O)[C@H]1O[C@@H](Oc2ccc(-c3oc4cc(O)cc(O)c4c(=O)c3O)cc2O)[C@H](O)[C@@H](O)[C@@H]1O [Q-4′-GlcA]
3 | 3.92 (±0.646) | 3.02 (±0.230) | 0.14 (±0.006) | kaempferol sulphate [K-S]

Further lines, the molecule ahead of its results:

Row | Molecule | Ap:Bl ratio (50 μM MK571) | Ap:Bl ratio (No MK571) | Ap:Bl ratio (100 μM MK571)
4 | O=C(O)[C@H]1O[C@@H](Oc2c(-c3ccccc3)oc3cc(O)cc(O)c3c2=O)[C@H](O)[C@@H](O)[C@@H]1O [G-3-GlcA, galangin-3-glucuronide] | 0.35 (±0.091) | 0.24 (±0.033) | –
5 | O=C(O)C1OC(Oc2cc(O)cc3oc(-c4ccccc4)c(O)c(=O)c23)C(O)C(O)C1O (centres unmarked) [G-5-GlcA] | 0.30 (±0.024) | 0.19 (±0.020) | –
6 | O=C(O)[C@H]1O[C@@H](Oc2cc(O)c3c(=O)c(O)c(-c4ccccc4)oc3c2)[C@H](O)[C@@H](O)[C@@H]1O [G-7-GlcA, galangin-7-glucuronide] | 0.51 (±0.036) | 0.54 (±0.058) | –
7 | O=C(O)[C@H]1O[C@@H](Oc2ccc(-c3oc4cc(O)cc(O)c4c(=O)c3O)cc2)[C@H](O)[C@@H](O)[C@@H]1O [K-4′-GlcA, kaempferol-4′-glucuronide] | 0.33 (±0.080) | 0.26 (±0.066) | 0.43 (±0.018)
8 | O=C(O)[C@H]1O[C@@H](Oc2cc(O)c3c(=O)c(O)c(-c4ccc(O)cc4)oc3c2)[C@H](O)[C@@H](O)[C@@H]1O [K-7-GlcA, kaempferol-7-glucuronide] | 0.35 (±0.063) | 0.28 (±0.044) | 0.44 (±0.021)
9 | galangin sulphate [G-S] | 9.10 (±0.783) | 13.6 (±1.440) | –
10 | kaempferol-sulfo-glucuronide [K-S-GlcA] | 0.42 (±0.121) | 0.59 (±0.174) | 0.43 (±0.028)

What follows are molecules tested on Caco-2/TC7 cell lysate (assay: Flavonol conjugate production by Caco-2/TC7 cell free lysate, effect of MK571). Conditions: aglycone 40 μM, MK571 50 μM vs control.
Assay type: biochemical, human
Method: Cells were grown until 21 days post confluent and washed and aspirated as described previously. The cells were then scraped into tubes and these tubes kept on ice at all times throughout the preparation procedure. Homogenisation buffer comprised of sodium phosphate buffer (50 mM adjusted to pH 6.5; 20 mL), two mini protease inhibitor cocktail tablets containing EDTA and perfabloc, dithiothreitol (30.8 mg), alamethacin (20 μL of a 22 μg/mL) solution from T. viride; and MgCl2 (3.5 mg). Cell-free homogenates were prepared by mixing cells with homogenisation buffer (50:50, vol/vol) and vortexing with glass beads in an eppendorf tube three times for 1 min over a 10 min period. To 900 μL of cell free lysate was added 10 μL uridine 5′-diphosphoglucuronic acid (4 mM final concentration) with uridine 5′-diphospho-N-acetyl-glucosamine (dissolved in homogenisation buffer, 2 mM final concentration); 10 μL MK571 (50 mmol/L stock diluted 1:9 with homogenisation buffer) or 10 μL dimethyl sulfoxide blank (diluted 1:9 with homogenisation buffer). The tubes were allowed to warm and once they reached 37 °C, the flavonols were added at the relevant concentration (kaempferol, quercetin or galangin; 10 mmol/L stock in dimethyl sulfoxide diluted 1:1 with homogenisation buffer, plus homogenisation buffer added to create a final volume of 1000 μL) and the tube vortexed briefly. The experiment was stopped by addition of a mixture of 50 μL trifluoracetic acid and 50 μL acetonitrile. Samples were then centrifuged for 10 min at 14,000 × g. The supernatant was removed and analysed via HPLC.

Row | Molecule | Change in rate (%)
11 | O=C(O)[C@H]1O[C@@H](Oc2c(-c3ccccc3)oc3cc(O)cc(O)c3c2=O)[C@H](O)[C@@H](O)[C@@H]1O [G-3-GlcA, galangin-3-glucuronide] | −63.2%
12 | O=C(O)[C@H]1O[C@@H](Oc2cc(O)c3c(=O)c(O)c(-c4ccccc4)oc3c2)[C@H](O)[C@@H](O)[C@@H]1O [G-7-GlcA, galangin-7-glucuronide] | −45.7%
13 | O=C(O)[C@H]1O[C@@H](Oc2c(-c3ccc(O)cc3)oc3cc(O)cc(O)c3c2=O)[C@H](O)[C@@H](O)[C@@H]1O [K-3-GlcA, kaempferol-3-glucuronide] | −19.3%
14 | O=C(O)[C@H]1O[C@@H](Oc2cc(O)c3c(=O)c(O)c(-c4ccc(O)cc4)oc3c2)[C@H](O)[C@@H](O)[C@@H]1O [K-7-GlcA, kaempferol-7-glucuronide] | −38.2%
15 | O=C(O)[C@H]1O[C@@H](Oc2c(-c3ccc(O)c(O)c3)oc3cc(O)cc(O)c3c2=O)[C@H](O)[C@@H](O)[C@@H]1O [Q-3-GlcA] | −21.8%
16 | O=C(O)[C@H]1O[C@@H](Oc2cc(-c3oc4cc(O)cc(O)c4c(=O)c3O)ccc2O)[C@H](O)[C@@H](O)[C@@H]1O [Q-3′-GlcA] | +25.6%
17 | O=C(O)[C@H]1O[C@@H](Oc2ccc(-c3oc4cc(O)cc(O)c4c(=O)c3O)cc2O)[C@H](O)[C@@H](O)[C@@H]1O [Q-4′-GlcA] | +12.1%
18 | O=C(O)[C@H]1O[C@@H](Oc2cc(O)c3c(=O)c(O)c(-c4ccc(O)c(O)c4)oc3c2)[C@H](O)[C@@H](O)[C@@H]1O [Q-7-GlcA] | −31.8%

Same assay, conditions: aglycone 40 μM, MK571 50 μM; slope (standard error of the slope)

Row | Rate +MK571 (conjugate production) | Molecule
19 | 0.83 (±0.14) pmol/h | O=C(O)[C@H]1O[C@@H](Oc2c(-c3ccc(O)c(O)c3)oc3cc(O)cc(O)c3c2=O)[C@H](O)[C@@H](O)[C@@H]1O [Q-3-GlcA]
20 | 2.62 (±0.24) pmol/h | O=C(O)[C@H]1O[C@@H](Oc2cc(-c3oc4cc(O)cc(O)c4c(=O)c3O)ccc2O)[C@H](O)[C@@H](O)[C@@H]1O [Q-3′-GlcA]
21 | 0.28 (±0.03) pmol/h | O=C(O)[C@H]1O[C@@H](Oc2ccc(-c3oc4cc(O)cc(O)c4c(=O)c3O)cc2O)[C@H](O)[C@@H](O)[C@@H]1O [Q-4′-GlcA]
22 | 1.29 (±0.26) pmol/h | O=C(O)[C@H]1O[C@@H](Oc2cc(O)c3c(=O)c(O)c(-c4ccc(O)c(O)c4)oc3c2)[C@H](O)[C@@H](O)[C@@H]1O [Q-7-GlcA]

Second part, the molecule before the results:

Row | Molecule | Rate +MK571 (conjugate production)
23 | O=C(O)[C@H]1O[C@@H](Oc2c(-c3ccccc3)oc3cc(O)cc(O)c3c2=O)[C@H](O)[C@@H](O)[C@@H]1O [G-3-GlcA, galangin-3-glucuronide] | 25.3 (±2.30) pmol/h
24 | O=C(O)[C@H]1O[C@@H](Oc2cc(O)c3c(=O)c(O)c(-c4ccccc4)oc3c2)[C@H](O)[C@@H](O)[C@@H]1O [G-7-GlcA, galangin-7-glucuronide] | 19.8 (±1.63) pmol/h
25 | O=C(O)[C@H]1O[C@@H](Oc2c(-c3ccc(O)cc3)oc3cc(O)cc(O)c3c2=O)[C@H](O)[C@@H](O)[C@@H]1O [K-3-GlcA, kaempferol-3-glucuronide] | 1.40 (±0.08) pmol/h
26 | O=C(O)[C@H]1O[C@@H](Oc2cc(O)c3c(=O)c(O)c(-c4ccc(O)cc4)oc3c2)[C@H](O)[C@@H](O)[C@@H]1O [K-7-GlcA, kaempferol-7-glucuronide] | 0.69 (±0.02) pmol/h
27 | kaempferol-sulfo-glucuronide [K-S-GlcA] | 0.34 (±0.02) pmol/h

Same assay, conditions: aglycone 40 μM, no MK571; slope (standard error of the slope)

Row | Rate control (conjugate production) | Molecule
28 | 1.05 (±0.09) pmol/h | O=C(O)[C@H]1O[C@@H](Oc2c(-c3ccc(O)c(O)c3)oc3cc(O)cc(O)c3c2=O)[C@H](O)[C@@H](O)[C@@H]1O [Q-3-GlcA]
29 | 2.09 (±0.12) pmol/h | O=C(O)[C@H]1O[C@@H](Oc2cc(-c3oc4cc(O)cc(O)c4c(=O)c3O)ccc2O)[C@H](O)[C@@H](O)[C@@H]1O [Q-3′-GlcA]
30 | 0.25 (±0.01) pmol/h | O=C(O)[C@H]1O[C@@H](Oc2ccc(-c3oc4cc(O)cc(O)c4c(=O)c3O)cc2O)[C@H](O)[C@@H](O)[C@@H]1O [Q-4′-GlcA]
31 | 1.89 (±0.16) pmol/h | O=C(O)[C@H]1O[C@@H](Oc2cc(O)c3c(=O)c(O)c(-c4ccc(O)c(O)c4)oc3c2)[C@H](O)[C@@H](O)[C@@H]1O [Q-7-GlcA]

More lines, now with the values behind:

Row | Molecule | Rate control (conjugate production)
32 | O=C(O)[C@H]1O[C@@H](Oc2c(-c3ccccc3)oc3cc(O)cc(O)c3c2=O)[C@H](O)[C@@H](O)[C@@H]1O [G-3-GlcA, galangin-3-glucuronide] | 68.8 (±6.12) pmol/h
33 | O=C(O)[C@H]1O[C@@H](Oc2cc(O)c3c(=O)c(O)c(-c4ccccc4)oc3c2)[C@H](O)[C@@H](O)[C@@H]1O [G-7-GlcA, galangin-7-glucuronide] | 36.5 (±1.49) pmol/h
34 | O=C(O)[C@H]1O[C@@H](Oc2c(-c3ccc(O)cc3)oc3cc(O)cc(O)c3c2=O)[C@H](O)[C@@H](O)[C@@H]1O [K-3-GlcA, kaempferol-3-glucuronide] | 1.73 (±0.16) pmol/h
35 | O=C(O)[C@H]1O[C@@H](Oc2cc(O)c3c(=O)c(O)c(-c4ccc(O)cc4)oc3c2)[C@H](O)[C@@H](O)[C@@H]1O [K-7-GlcA, kaempferol-7-glucuronide] | 1.12 (±0.09) pmol/h
36 | kaempferol-sulfo-glucuronide [K-S-GlcA] | 0.54 (±0.04) pmol/h

Source: PMC4428793, “MK571 inhibits phase-2 conjugation of flavonols by Caco-2/TC7 cells, but does not specifically inhibit their apical efflux^” (Biochemical Pharmacology, 2015)
